Laboratory results published in PubChem BioAssay (NCI).
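In this assay, cells in 96-well plates receive the compound at five concentrations for 48 hours. Endpoints are linearly interpolated between the surrounding concentrations. TGI is the concentration that stops growth completely.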

Columns and labels:
Experiment in all cases: NCI anticancer screen, dose series, 48 h
OVCAR-5 ovarian = system: OVCAR-5 ovarian
NCI-H226 lung = system: NCI-H226 lung
HCC-2998 colon = system: HCC-2998 colon
U251 CNS = system: U251 CNS
HOP-92 NSCLC = system: HOP-92 NSCLC
SNB-75 CNS = system: SNB-75 CNS
SW-620 colon = system: SW-620 colon
NCI-H23 lung = system: NCI-H23 lung
CAKI-1 renal = system: CAKI-1 renal
SK-OV-3 ovarian = system: SK-OV-3 ovarian
SK-MEL-2 melanoma = system: SK-MEL-2 melanoma
LOX IMVI melanoma = system: LOX IMVI melanoma
HOP-62 NSCLC = system: HOP-62 NSCLC
COLO 205 colon = system: COLO 205 colon
A549 NSCLC = system: A549 NSCLC
MCF7 breast = system: MCF7 breast
NCI/ADR-RES ovarian = system: NCI/ADR-RES ovarian
MDA-MB-231 breast = system: MDA-MB-231 breast

Cc1ccc(O)c(C(=O)CCCC(=O)c2cc(C)ccc2O)c1
TGI (OVCAR-5 ovarian): > 100 µM | TGI (NCI-H226 lung): > 100 µM | TGI (HCC-2998 colon): > 100 µM | TGI (U251 CNS): > 100 µM | TGI (HOP-92 NSCLC): > 100 µM | TGI (SNB-75 CNS): > 100 µM | TGI (SW-620 colon): > 100 µM | TGI (NCI-H23 lung): > 100 µM | TGI (CAKI-1 renal): > 100 µM | TGI (SK-OV-3 ovarian): > 100 µM | TGI (SK-MEL-2 melanoma): > 100 µM | TGI (LOX IMVI melanoma): > 100 µM | TGI (HOP-62 NSCLC): > 100 µM | TGI (COLO 205 colon): > 100 µM

CC(=O)NNc1nc(C)c(C(/C=C/c2ccc(Cl)cc2)=N/NC(=O)C[N+](C)(C)C)s1
TGI (OVCAR-5 ovarian): > 100 µM | TGI (NCI-H226 lung): > 100 µM | TGI (HCC-2998 colon): > 100 µM | TGI (HOP-92 NSCLC): > 100 µM | TGI (SNB-75 CNS): > 100 µM | TGI (SW-620 colon): > 100 µM | TGI (NCI-H23 lung): > 100 µM | TGI (CAKI-1 renal): > 100 µM | TGI (SK-OV-3 ovarian): > 100 µM | TGI (SK-MEL-2 melanoma): > 100 µM | TGI (A549 NSCLC): > 100 µM | TGI (LOX IMVI melanoma): > 100 µM | TGI (COLO 205 colon): > 100 µM

Cn1ncnc1CCc1ccccc1
TGI (OVCAR-5 ovarian): > 100 µM | TGI (NCI-H226 lung): > 100 µM | TGI (U251 CNS): > 100 µM | TGI (HOP-92 NSCLC): > 100 µM | TGI (SNB-75 CNS): > 100 µM | TGI (SW-620 colon): > 100 µM | TGI (NCI-H23 lung): > 100 µM | TGI (CAKI-1 renal): > 100 µM | TGI (SK-OV-3 ovarian): > 100 µM | TGI (SK-MEL-2 melanoma): > 100 µM | TGI (A549 NSCLC): > 100 µM | TGI (LOX IMVI melanoma): > 100 µM | TGI (HOP-62 NSCLC): > 100 µM | TGI (COLO 205 colon): > 100 µM

O=C(/C=C/c1ccc(O)c(O)c1O)OCCc1ccccc1
TGI (MCF7 breast): 32.2 µM | TGI (OVCAR-5 ovarian): > 100 µM | TGI (NCI-H226 lung): 97.9 µM | TGI (HCC-2998 colon): > 100 µM | TGI (U251 CNS): 80.6 µM | TGI (HOP-92 NSCLC): > 100 µM | TGI (NCI/ADR-RES ovarian): 70.7 µM | TGI (SW-620 colon): 49.2 µM | TGI (NCI-H23 lung): 48.7 µM | TGI (CAKI-1 renal): > 100 µM | TGI (SK-OV-3 ovarian): > 100 µM | TGI (SK-MEL-2 melanoma): > 100 µM | TGI (A549 NSCLC): 52.8 µM | TGI (LOX IMVI melanoma): 53.5 µM | TGI (HOP-62 NSCLC): 55.5 µM | TGI (MDA-MB-231 breast): 47.3 µM | TGI (COLO 205 colon): 64.5 µM

CC(=O)Nc1ccc(C(=O)NN2C(=O)C(Cl)C2c2ccccc2O)cc1 (stereo not given)
TGI (OVCAR-5 ovarian): > 100 µM | TGI (NCI-H226 lung): > 100 µM | TGI (U251 CNS): > 100 µM | TGI (HOP-92 NSCLC): > 100 µM | TGI (SNB-75 CNS): 78.9 µM | TGI (SW-620 colon): > 100 µM | TGI (NCI-H23 lung): 78.3 µM | TGI (CAKI-1 renal): > 100 µM | TGI (SK-OV-3 ovarian): > 100 µM | TGI (SK-MEL-2 melanoma): > 100 µM | TGI (A549 NSCLC): > 100 µM | TGI (LOX IMVI melanoma): 48.9 µM | TGI (HOP-62 NSCLC): 41.6 µM | TGI (COLO 205 colon): > 100 µM

C=CC[C@@H]1C(=O)[C@@]2(O[Si](C(C)C)(C(C)C)C(C)C)CC[C@@H]1C[C@H]2NC(=O)OCC(Cl)(Cl)Cl
TGI (OVCAR-5 ovarian): > 100 µM | TGI (NCI-H226 lung): > 100 µM | TGI (HCC-2998 colon): > 100 µM | TGI (U251 CNS): > 100 µM | TGI (NCI/ADR-RES ovarian): > 100 µM | TGI (SNB-75 CNS): > 100 µM | TGI (SW-620 colon): > 100 µM | TGI (NCI-H23 lung): > 100 µM | TGI (CAKI-1 renal): > 100 µM | TGI (SK-OV-3 ovarian): > 100 µM | TGI (SK-MEL-2 melanoma): > 100 µM | TGI (A549 NSCLC): > 100 µM | TGI (LOX IMVI melanoma): > 100 µM | TGI (HOP-62 NSCLC): > 100 µM | TGI (COLO 205 colon): > 100 µM

COc1ccc(/C=C2\N=C(NN)N=C2Cl)cc1
TGI (MCF7 breast): > 100 µM | TGI (OVCAR-5 ovarian): > 100 µM | TGI (NCI-H226 lung): > 100 µM | TGI (HCC-2998 colon): > 100 µM | TGI (U251 CNS): > 100 µM | TGI (HOP-92 NSCLC): > 100 µM | TGI (NCI/ADR-RES ovarian): > 100 µM | TGI (SNB-75 CNS): > 100 µM | TGI (SW-620 colon): > 100 µM | TGI (NCI-H23 lung): > 100 µM | TGI (CAKI-1 renal): > 100 µM | TGI (SK-OV-3 ovarian): > 100 µM | TGI (SK-MEL-2 melanoma): > 100 µM | TGI (A549 NSCLC): > 100 µM | TGI (LOX IMVI melanoma): > 100 µM | TGI (HOP-62 NSCLC): > 100 µM | TGI (MDA-MB-231 breast): > 100 µM | TGI (COLO 205 colon): > 100 µM
